# Reference: PubChem BioAssay AID256 (DTP/NCI, 2004)
# Several values for one entry are separate records, joined by “and”; a condition that tells them apart may be missing. Equal values may be shown once. Toxic doses and inconclusive results are not listed.
# Tested on: CD2F1 mice, L1210 leukemia ip, survival T/C
# Assay: NCI In Vivo Anticancer Drug Screen. Data for tumor model L1210 Leukemia (intraperitoneal) in CD2F1 (CDF1) mice
# Details: higher = longer survival
# Method in brief: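 Implant tumor; dose compound or vehicle; measure endpoint in both groups; report treated divided by control.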
# [1] = endpoint: mean survival time, dose: 50.0 mg/kg/injection, schedule: Q01DX009 (ip), vehicle: Klucel (hydroxypropylcellulose) (HPC)
# [2] = endpoint: mean survival time, dose: 100.0 mg/kg/injection, schedule: Q01DX009 (ip), vehicle: Klucel (hydroxypropylcellulose) (HPC)
# [3] = endpoint: mean survival time, dose: 200.0 mg/kg/injection, schedule: Q01DX009 (ip), vehicle: Klucel (hydroxypropylcellulose) (HPC)
# [4] = endpoint: mean survival time, dose: 18.0 mg/kg/injection, schedule: Q01DX009 (ip), vehicle: saline with Tween-80
# [5] = endpoint: mean survival time, dose: 100.0 mg/kg/injection, schedule: Q01DX009 (ip), vehicle: saline with Tween-80
# [6] = endpoint: mean survival time, dose: 200.0 mg/kg/injection, schedule: Q01DX009 (ip), vehicle: saline with Tween-80
# [7] = endpoint: mean survival time, dose: 400.0 mg/kg/injection, schedule: Q01DX009 (ip), vehicle: saline with Tween-80
# [8] = endpoint: mean survival time, dose: 75.0 mg/kg/injection, schedule: Q01DX001 (ip), vehicle: saline
# [9] = endpoint: mean survival time, dose: 150.0 mg/kg/injection, schedule: Q01DX001 (ip), vehicle: saline
# [10] = endpoint: mean survival time, dose: 50.0 mg/kg/injection, schedule: Q01DX009 (ip), vehicle: saline with Tween-80
# [11] = endpoint: mean survival time, dose: 100.0 mg/kg/injection, schedule: Q04DX003 (ip), vehicle: saline with Tween-80
# [12] = endpoint: mean survival time, dose: 100.0 mg/kg/injection, schedule: Q04DX002 (ip), vehicle: saline with Tween-80
# [13] = endpoint: mean survival time, dose: 200.0 mg/kg/injection, schedule: Q04DX002 (ip), vehicle: saline with Tween-80
# [14] = endpoint: mean survival time, dose: 200.0 mg/kg/injection, schedule: Q04DX003 (ip), vehicle: saline with Tween-80
# [15] = endpoint: mean survival time, dose: 400.0 mg/kg/injection, schedule: Q04DX003 (ip), vehicle: saline with Tween-80
# [16] = endpoint: mean survival time, dose: 100.0 mg/kg/injection, schedule: Q01DX001 (ip), vehicle: saline with Tween-80
# [17] = endpoint: mean survival time, dose: 200.0 mg/kg/injection, schedule: Q01DX001 (ip), vehicle: saline with Tween-80
# [18] = endpoint: mean survival time, dose: 100.0 mg/kg/injection, schedule: Q04DX003 (ip), vehicle: saline
# [19] = endpoint: mean survival time, dose: 200.0 mg/kg/injection, schedule: Q04DX003 (ip), vehicle: saline
# [20] = endpoint: mean survival time, dose: 400.0 mg/kg/injection, schedule: Q04DX003 (ip), vehicle: saline
smiles,measurement,setting,value
CC12CCC3C4CCC(=O)C=C4CCC3C1CCC2O (stereo not drawn),T/C,[1],101 % of control
same,T/C,[2],96 % of control
same,T/C,[3],101 % of control
C=C1C(=O)O[C@@H]2/C=C(/C)[C@@]3(O)C=C[C@](C)(C[C@@H](OC(=O)/C(=C\C)COC(C)=O)[C@@H]12)O3,T/C,"endpoint: mean survival time, dose: 6.0 mg/kg/injection, schedule: Q01DX009 (ip), vehicle: saline with Tween-80",88 % of control
same,T/C,"endpoint: mean survival time, dose: 8.0 mg/kg/injection, schedule: Q01DX009 (ip), vehicle: saline with Tween-80",94 % of control
same,T/C,"endpoint: mean survival time, dose: 12.0 mg/kg/injection, schedule: Q01DX009 (ip), vehicle: saline with Tween-80",94 % of control
same,T/C,[4],98 % of control
same,T/C,"endpoint: mean survival time, dose: 27.0 mg/kg/injection, schedule: Q01DX009 (ip), vehicle: saline with Tween-80",93 % of control
CC1CCOC(C(C)C)O1 (stereo not drawn),T/C,"endpoint: mean survival time, dose: 50.0 mg/kg/injection, schedule: Q04DX002 (ip), vehicle: saline",96 % of control
same,T/C,"endpoint: mean survival time, dose: 100.0 mg/kg/injection, schedule: Q04DX002 (ip), vehicle: saline",96 % of control
same,T/C,"endpoint: mean survival time, dose: 200.0 mg/kg/injection, schedule: Q04DX002 (ip), vehicle: saline",92 % of control
Cc1ccc2nc(-c3cccc([N+](=O)[O-])c3)oc(=O)c2c1,T/C,[5],97 % of control
same,T/C,[6],96 % of control
same,T/C,[7],94 % of control
CC(C)(C)OC(=O)NC(CCC(=O)O)C(=O)OC(C)(C)C (stereo not drawn),T/C,[5],102 % of control
same,T/C,[6],93 % of control
same,T/C,[7],92 % of control
CC(O)(C(=O)O)c1ccccc1 (stereo not drawn),T/C,[8],102 % of control
same,T/C,[9],112 % of control
same,T/C,"endpoint: mean survival time, dose: 300.0 mg/kg/injection, schedule: Q01DX001 (ip), vehicle: saline",100 % of control
CCCCCCCCCCCCCCNCCC(=O)O,T/C,[8],98 % of control
same,T/C,[9],106 % of control
CCOC(=O)c1c(OC)cc2n(c1=O)Cc1cc3ccccc3nc1-2,T/C,"endpoint: mean survival time, dose: 25.0 mg/kg/injection, schedule: Q01DX009 (ip), vehicle: saline with Tween-80",98 % of control
same,T/C,[10],98 % of control
same,T/C,[5],101 % of control
same,T/C,[11],90 % of control
Cn1c(N)c(C2OC(=O)c3ccccc32)c(=O)n(C)c1=O (stereo not drawn),T/C,"endpoint: mean survival time, dose: 100.0 mg/kg/injection, schedule: Q04DX002 (ip), vehicle: Klucel (hydroxypropylcellulose) (HPC)",98 % of control
same,T/C,"endpoint: mean survival time, dose: 200.0 mg/kg/injection, schedule: Q04DX002 (ip), vehicle: Klucel (hydroxypropylcellulose) (HPC)",98 % of control
O=[N+]([O-])c1ccc(S(=O)(=O)OCc2ccccc2OS(=O)(=O)c2ccc([N+](=O)[O-])cc2)cc1,T/C,"endpoint: mean survival time, dose: 25.0 mg/kg/injection, schedule: Q04DX003 (ip), vehicle: saline with Tween-80",109 % of control
same,T/C,"endpoint: mean survival time, dose: 50.0 mg/kg/injection, schedule: Q04DX003 (ip), vehicle: saline with Tween-80",106 % of control
same,T/C,[11],93 % of control
O=C(C(=C(c1ccccc1)c1ccccc1)c1ccccc1)c1ccccc1,T/C,[12],93 % of control
same,T/C,[13],96 % of control
same,T/C,"endpoint: mean survival time, dose: 400.0 mg/kg/injection, schedule: Q04DX002 (ip), vehicle: saline with Tween-80",93 % of control
OC(CN=C/C=C/c1ccccc1)c1ccccc1 (stereo not drawn),T/C,[11],95 % of control
same,T/C,[14],89 % of control
same,T/C,[15],92 % of control
CCOP(=O)(OCC)C(C(C)C)N(C)C (stereo not drawn),T/C,[16],103 % of control
same,T/C,[17],101 % of control
same,T/C,"endpoint: mean survival time, dose: 400.0 mg/kg/injection, schedule: Q01DX001 (ip), vehicle: saline with Tween-80",98 % of control
COc1cccc2c1C(=O)c1c(O)c3c(c(O)c1C2=O)CC(O)(/C(C)=N/NC(=O)CCCC(=O)N/N=C(\C)C1(O)Cc2c(O)c4c(c(O)c2C(OC2CC(N)C(O)C(C)O2)C1)C(=O)c1c(OC)cccc1C4=O)CC3OC1CC(N)C(O)C(C)O1 (stereo not drawn),T/C,"endpoint: mean survival time, dose: 0.2 mg/kg/injection, schedule: Q01DX009 (ip), vehicle: water",101 % of control
same,T/C,"endpoint: mean survival time, dose: 0.39 mg/kg/injection, schedule: Q01DX009 (ip), vehicle: water",98 % of control
same,T/C,"endpoint: mean survival time, dose: 0.78 mg/kg/injection, schedule: Q01DX009 (ip), vehicle: water",109 % of control
same,T/C,"endpoint: mean survival time, dose: 1.56 mg/kg/injection, schedule: Q01DX009 (ip), vehicle: water",104 % of control
same,T/C,"endpoint: mean survival time, dose: 3.13 mg/kg/injection, schedule: Q01DX009 (ip), vehicle: water",114 % of control
CC/C=C/CC(=O)NCc1ccc(O)c(OC)c1,T/C,[16],101 % of control
same,T/C,[17],103 % of control
O=C(CN1C(=O)CCC1=O)NCCc1cccc(OCc2ccccc2)c1,T/C,[5],94 % of control
same,T/C,[11],97 % of control
same,T/C,[6],89 % of control
same,T/C,[14],97 % of control
same,T/C,[7],91 % of control
same,T/C,[15],97 % of control
Cc1ccc(S(=O)(=O)c2ccc(F)cc2)cc1,T/C,[5],100 % of control
same,T/C,[6],102 % of control
same,T/C,[7],96 % of control
CCNc1ncc2ccccc2c1-c1ccc(NCCN(CCCl)CCCl)cc1,T/C,"endpoint: mean survival time, dose: 25.0 mg/kg/injection, schedule: Q04DX003 (ip), vehicle: water",98 % of control
same,T/C,"endpoint: mean survival time, dose: 50.0 mg/kg/injection, schedule: Q04DX003 (ip), vehicle: water",100 % of control
same,T/C,"endpoint: mean survival time, dose: 100.0 mg/kg/injection, schedule: Q04DX003 (ip), vehicle: water",90 % of control
Nc1ccc(Br)cc1-c1nc(N)c2cc(Br)ccc2n1,T/C,[1],104 % of control
same,T/C,"endpoint: mean survival time, dose: 100.0 mg/kg/injection, schedule: Q01DX001 (ip), vehicle: Klucel (hydroxypropylcellulose) (HPC)",93 % of control
same,T/C,[2],89 % of control
same,T/C,"endpoint: mean survival time, dose: 200.0 mg/kg/injection, schedule: Q01DX001 (ip), vehicle: Klucel (hydroxypropylcellulose) (HPC)",103 % of control
same,T/C,[3],100 % of control
same,T/C,"endpoint: mean survival time, dose: 400.0 mg/kg/injection, schedule: Q01DX001 (ip), vehicle: Klucel (hydroxypropylcellulose) (HPC)",100 % of control
CS(=O)(=O)Nc1ccc(Nc2c3ccccc3nc3cc(Cl)ccc23)cc1,T/C,[10],186 % of control
same,T/C,[18],160 % of control
same,T/C,"endpoint: mean survival time, dose: 133.0 mg/kg/injection, schedule: Q04DX003 (ip), vehicle: saline with Tween-80",114 % of control
same,T/C,[19],225 % of control
C=CC1CCCCC1C (stereo not drawn),T/C,[11],100 % of control
same,T/C,[14],100 % of control
same,T/C,[15],103 % of control
COc1oc(C2C/C(=C/C(C)=C/C(C)=C/C(C)=C/c3ccc([N+](=O)[O-])cc3)CO2)c(C)c(=O)c1C (stereo not drawn),T/C,"endpoint: median survival time, dose: 0.25 mg/kg/injection, schedule: Q01DX009 (ip), vehicle: saline",104 % of control and 108 % of control
same,T/C,"endpoint: median survival time, dose: 0.5 mg/kg/injection, schedule: Q01DX009 (ip), vehicle: saline",118 % of control and 124 % of control and 112 % of control
same,T/C,"endpoint: median survival time, dose: 1.0 mg/kg/injection, schedule: Q01DX009 (ip), vehicle: saline",118 % of control and 124 % of control
same,T/C,"endpoint: median survival time, dose: 2.0 mg/kg/injection, schedule: Q01DX009 (ip), vehicle: saline",120 % of control
same,T/C,"endpoint: median survival time, dose: 4.0 mg/kg/injection, schedule: Q01DX009 (ip), vehicle: saline",103 % of control
CCOC(=O)Cc1cccc(C)n1,T/C,[5],104 % of control
same,T/C,[18],94 % of control
same,T/C,[6],98 % of control
same,T/C,[19],92 % of control
same,T/C,[7],100 % of control
same,T/C,[20],94 % of control
C=C(Br)CNC(=O)C(C)C,T/C,"endpoint: mean survival time, dose: 5.0 mg/kg/injection, schedule: Q01DX009 (ip), vehicle: saline with Tween-80",98 % of control
same,T/C,"endpoint: mean survival time, dose: 10.0 mg/kg/injection, schedule: Q01DX009 (ip), vehicle: saline with Tween-80",100 % of control
same,T/C,"endpoint: mean survival time, dose: 20.0 mg/kg/injection, schedule: Q01DX009 (ip), vehicle: saline with Tween-80",100 % of control
Cn1ncc2c(NCc3ccccc3)ncnc21,T/C,[4],114 % of control
same,T/C,"endpoint: mean survival time, dose: 37.5 mg/kg/injection, schedule: Q01DX009 (ip), vehicle: saline with Tween-80",115 % of control
O=C(/C=C/c1ccc(OCc2ccccc2)c(OCc2ccccc2)c1)OCc1ccccc1,T/C,"endpoint: mean survival time, dose: 25.0 mg/kg/injection, schedule: Q04DX002 (ip), vehicle: saline with Tween-80",102 % of control
same,T/C,"endpoint: mean survival time, dose: 50.0 mg/kg/injection, schedule: Q04DX002 (ip), vehicle: saline with Tween-80",91 % of control
same,T/C,[12],95 % of control
same,T/C,[13],95 % of control
Cc1cccc(C)c1N=C(NO)c1ccccc1,T/C,"endpoint: mean survival time, dose: 100.0 mg/kg/injection, schedule: Q01DX001 (ip), vehicle: saline",102 % of control
same,T/C,[18],106 % of control
same,T/C,"endpoint: mean survival time, dose: 200.0 mg/kg/injection, schedule: Q01DX001 (ip), vehicle: saline",100 % of control
same,T/C,[19],112 % of control
same,T/C,"endpoint: mean survival time, dose: 400.0 mg/kg/injection, schedule: Q01DX001 (ip), vehicle: saline",90 % of control
same,T/C,[20],100 % of control
